Data from patent US20110190503A1, “Thiazolopyridin-2-yloxy-phenyl and thiazolopyrazin-2-yloxy-phenyl amines as modulators of leukotriene A4 hydrolase” (Janssen Pharmaceutical NV, priority 2008, published 2011).

Columns and labels:
[1] = test system: LTB4 production by calcium ionophore-stimulated murine blood; test: LTB4 production by calcium ionophore-stimulated murine blood for LTA4H inhibitor activity; type: cell-based, CD-1 mice; settings: Mus musculus; murine blood diluted 1 in 15, calcium ionophore A23187, LTB4 by immunoassay; read-out: IC50
Method: Assay 2: LTB4 Production by Calcium Ionophore-Stimulated Murine Blood for LTA4H Inhibitor Activity
CD-1 mice were sacrificed, and blood was collected in heparin-containing syringes by cardiac puncture. […] After the microtiter plate contents were incubated for 15 min at 37° C. in a humidified incubator, calcium ionophore A23187 (Sigma Chemical Co., St. Louis, Mo.) was added to each sample well (final concentration=7 μg/mL). The incubation was continued under the same conditions for an additional 30 min to allow LTB4 formation. The reaction was terminated by centrifugation (833×g, 10 min at 4° C.), and supernatants were analyzed for LTB4 by a commercially available enzyme-linked immunoassay (Cayman Chemical Co.) according to the manufacturer's instructions. Positive controls, under essentially identical conditions but without addition of an inhibitor compound, and negative unstimulated controls, containing all assay components except calcium ionophore, were routinely run in each experiment. […] The values presented here are the result of a single determination or an average of two or more determinations, as indicated in parentheses following each value. For compounds tested three or more times, the average value is followed by the standard deviation

[2] = target: T1, recombinant human LTA4 hydrolase (rhLTA4H) (Homo sapiens, UniProt P09960); test: Recombinant human LTA4 hydrolase assay for LTA4 hydrolase inhibitor activity; type: biochemical; settings: rhLTA4H, LTA4 substrate, LTB4 by immunoassay; single determination or average; read-out: IC50
T1 construct: made in house; host or cells: Spodoptera frugiperda (Sf-9) cells, recombinant baculovirus (pFastBac1)
T1 sequence (P09960 1-611): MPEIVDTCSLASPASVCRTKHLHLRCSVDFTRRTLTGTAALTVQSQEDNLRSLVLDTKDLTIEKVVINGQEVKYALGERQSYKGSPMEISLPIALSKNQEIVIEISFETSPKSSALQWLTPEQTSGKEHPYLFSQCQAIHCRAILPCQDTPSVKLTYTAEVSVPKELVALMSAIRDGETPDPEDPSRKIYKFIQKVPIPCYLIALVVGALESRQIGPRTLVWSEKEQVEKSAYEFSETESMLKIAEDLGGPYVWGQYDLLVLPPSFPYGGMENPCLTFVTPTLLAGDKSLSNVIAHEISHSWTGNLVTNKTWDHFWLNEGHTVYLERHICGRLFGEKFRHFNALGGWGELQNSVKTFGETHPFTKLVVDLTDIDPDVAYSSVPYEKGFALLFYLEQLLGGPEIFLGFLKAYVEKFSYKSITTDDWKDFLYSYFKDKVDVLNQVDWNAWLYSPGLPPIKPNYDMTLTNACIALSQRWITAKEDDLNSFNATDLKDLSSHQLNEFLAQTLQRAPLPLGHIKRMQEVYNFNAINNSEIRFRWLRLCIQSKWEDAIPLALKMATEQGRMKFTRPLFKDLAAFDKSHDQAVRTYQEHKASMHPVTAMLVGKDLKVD
Summary of the method: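 LTB4 formed from LTA4 substrate (free acid from the methyl ester) was quantified by enzyme immunoassay after a 30 min rt reaction. Enzyme was 10 ng Sf-9-expressed human LTA4 hydrolase, pre-incubated 10 min with compound.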

| Structure (SMILES) | IC50 [1] | IC50 [2] |
| --- | --- | --- |
| C[C@H](c1ccccc1)N(C)CCc1ccc(Oc2nc3ncccc3s2)cc1 [Example 58, (1R)—N-Methyl-1-phenyl-N-{2-[4-([1,3]thiazolo[4,5-b]pyridin-2-yloxy)phenyl]ethyl}ethanamine] | 45 nM | 8 nM |
| NC(=O)N1CC2CN(CCOc3ccc(Oc4nc5ncccc5s4)cc3)CC2C1 (stereo not shown) [Example 19, 5-{2-[4-([1,3]Thiazolo[4,5-b]pyridin-2-yloxy)phenoxy]ethyl}hexahydropyrrolo[3,4-c]pyrrole-2(1H)-carboxamide] | 340 nM | 17 nM |
| CN(CCOc1ccc(Oc2nc3ncccc3s2)cc1)Cc1ccccc1 [Example 36, N-Benzyl-N-methyl-2-[4-([1,3]thiazolo[4,5-b]pyridin-2-yloxy)phenoxy]ethanamine] | 51 nM | 3 nM |
| CC(=O)N1CCC2(CCN(Cc3ccc(Oc4nc5ncccc5s4)cc3)CC2)CC1 [Example 295, 3-Acetyl-9-[4-([1,3]thiazolo[4,5-b]pyridin-2-yloxy)benzyl]-3,9-diazaspiro[5.5]undecane] | 15 nM | 6 nM |
| OC1(c2ccccc2)CCN(Cc2ccc(Oc3nc4ncccc4s3)cc2)CC1 [Example 105, 4-Phenyl-1-[4-([1,3]thiazolo[4,5-b]pyridin-2-yloxy)benzyl]piperidin-4-ol] | 15 nM | 0.53 nM |
| OC1(c2ccc(Cl)cc2)CCN(CCc2ccc(Oc3nc4ncccc4s3)cc2)CC1 [Example 47, 4-(4-Chlorophenyl)-1-{2-[4-([1,3]thiazolo[4,5-b]pyridin-2-yloxy)phenyl]ethyl}piperidin-4-ol] | 210 nM | 34 nM |
| OC1(c2cccc(C(F)(F)F)c2)CCN(Cc2ccc(Oc3nc4ncccc4s3)cc2)CC1 [Example 103, 1-[4-([1,3]Thiazolo[4,5-b]pyridin-2-yloxy)benzyl]-4-[3-(trifluoromethyl)phenyl]piperidin-4-ol] | 120 nM | 10 nM |
| NC(=O)N[C@H]1C[C@H]2CC[C@@H](C1)N2Cc1ccc(Oc2nc3ncccc3s2)cc1 [Example 278, meso-1-{(3-endo)-8-[4-([1,3]Thiazolo[4,5-b]pyridin-2-yloxy)benzyl]-8-azabicyclo[3.2.1]oct-3-yl}urea] | 280 nM | 2 nM |
| c1cnc2nc(Oc3ccc(CNCCN4CCCCC4)cc3)sc2c1 [Example 91, 2-Piperidin-1-yl-N-[4-([1,3]thiazolo[4,5-b]pyridin-2-yloxy)benzyl]ethanamine] | 680 nM | 39 nM |
| O=C(O)C1CCN(Cc2ccc(Oc3nc4ncccc4s3)cc2)CC1 [Example 131, 1-[4-([1,3]Thiazolo[4,5-b]pyridin-2-yloxy)benzyl]piperidine-4-carboxylic acid] | 1070 nM | 7.8 nM |
| CC(=O)N1C[C@@H]2C[C@H]1CN2Cc1ccc(Oc2nc3nccc(C)c3s2)cc1 [Example 125, 2-(4-{[(1S,4S)-5-Acetyl-2,5-diazabicyclo[2.2.1]hept-2-yl]methyl}phenoxy)-7-methyl[1,3]thiazolo[4,5-b]pyridine] | 19 nM | 12 nM |
| CC(=O)N[C@@H]1C[C@H]2CC[C@@H](C1)N2CCOc1ccc(Oc2nc3cccnc3s2)cc1 [Example 153, meso-N-[(3-exo)-8-{2-[4-([1,3]Thiazolo[5,4-b]pyridin-2-yloxy)phenoxy]ethyl}-8-azabicyclo[3.2.1]oct-3-yl]acetamide] | 360 nM | 35 nM |
| COCCN(C)CCOc1ccc(Oc2nc3nccc(C)c3s2)cc1 [Example 160, N-Methyl-2-(methyloxy)-N-[2-({4-[(7-methyl[1,3]thiazolo[4,5-b]pyridin-2-yl)oxy]phenyl}oxy)ethyl]ethanamine] | 180 nM | 99 nM |
| NC(=O)N[C@@H]1C[C@H]2CC[C@@H](C1)N2Cc1ccc(Oc2nc3ncccc3s2)cc1 [Example 110, meso-1-{(3-exo)-8-[4-([1,3]Thiazolo[4,5-b]pyridin-2-yloxy)benzyl]-8-azabicyclo[3.2.1]oct-3-yl}urea] | 1440 nM | 1 nM |
| OC1(c2ccc(Cl)cc2)CCN(Cc2ccc(Oc3nc4ncccc4s3)cc2)CC1 [Example 104, 4-(4-Chlorophenyl)-1-[4-([1,3]thiazolo[4,5-b]pyridin-2-yloxy)benzyl]piperidin-4-ol] | 28 nM | 1.9 nM |
| CS(=O)(=O)N[C@H]1C[C@H]2CC[C@@H](C1)N2Cc1ccc(Oc2nc3ncccc3s2)cc1 [Example 182, meso-N-[(3-endo)-8-{[4-([1,3]Thiazolo[4,5-b]pyridin-2-yloxy)phenyl]methyl}-8-azabicyclo[3.2.1]oct-3-yl]methanesulfonamide] | 24 nM | 1.9 nM |
| OC1(c2ccccn2)CCN(Cc2ccc(Oc3nc4ncccc4s3)cc2)CC1 [Example 101, 4-Pyridin-2-yl-1-[4-([1,3]thiazolo[4,5-b]pyridin-2-yloxy)benzyl]piperidin-4-ol] | 3 nM | 11 nM |
| c1cnc2sc(Oc3ccc(OCCN4CCC(c5ccncc5)CC4)cc3)nc2c1 [Example 42, 2-{4-[2-(4-Pyridin-4-ylpiperidin-1-yl)ethoxy]phenoxy}[1,3]thiazolo[5,4-b]pyridine] | 580 nM | 83 nM |
| c1cncc(OC2CCN(CCOc3ccc(Oc4nc5ncccc5s4)cc3)CC2)c1 [Example 4, 2-(4-{2-[4-(Pyridin-3-yloxy)piperidin-1-yl]ethoxy}phenoxy)[1,3]thiazolo[4,5-b]pyridine] | 54 nM | 9 nM |
| CC(=O)N1C[C@H]2CC[C@@H](C1)N2CCc1ccc(Oc2nc3cccnc3s2)cc1 [Example 53, meso-2-(4-{2-[3-Acetyl-3,8-diazabicyclo[3.2.1]oct-8-yl]ethyl}phenoxy)[1,3]thiazolo[5,4-b]pyridine] | 2500 nM | 58 nM |

Continued, values first:

| IC50 [1] | IC50 [2] | Structure (SMILES) |
| --- | --- | --- |
| 260 nM | 200 nM | NC(=O)C1CCN(CCOc2ccc(Oc3nc4nccnc4s3)cc2)CC1 [Example 26, 1-{2-[4-([1,3]Thiazolo[4,5-b]pyrazin-2-yloxy)phenoxy]ethyl}piperidine-4-carboxamide] |
| 380 nM | 52 nM | c1ccc(CC2CCN(CCOc3ccc(Oc4nc5ncccc5s4)cc3)CC2)cc1 [Example 28, 2-{4-[2-(4-Benzylpiperidin-1-yl)ethoxy]phenoxy}[1,3]thiazolo[4,5-b]pyridine] |
| 5.6 nM | 8 nM | OC1CCN(Cc2ccc(Oc3nc4ncccc4s3)cc2)CC1 [Example 137, 1-[4-([1,3]Thiazolo[4,5-b]pyridin-2-yloxy)benzyl]piperidin-4-ol] |
| 3300 nM | 47 nM | O=C(O)CCNCc1ccc(Oc2nc3ncccc3s2)cc1 [Example 275, N-[4-([1,3]Thiazolo[4,5-b]pyridin-2-yloxy)benzyl]-beta-alanine] |
| 8 nM | 2 nM | c1cnc(OC2CCN(Cc3ccc(Oc4nc5ncccc5s4)cc3)CC2)nc1 [Example 99, 2-(4-{[4-(Pyrimidin-2-yloxy)piperidin-1-yl]methyl}phenoxy)[1,3]thiazolo[4,5-b]pyridine] |
| 17 nM | 6 nM | c1cnc2nc(Oc3ccc(OCCN4CCCC4)cc3)sc2c1 [Example 9, 2-[4-(2-Pyrrolidin-1-ylethoxy)phenoxy][1,3]thiazolo[4,5-b]pyridine] |
| 380 nM | 70 nM | c1ccc(SC2CCN(CCOc3ccc(Oc4nc5ncccc5s4)cc3)CC2)cc1 [Example 3, 2-(4-{2-[4-(Phenylsulfanyl)piperidin-1-yl]ethoxy}phenoxy)[1,3]thiazolo[4,5-b]pyridine] |
| 330 nM | 49 nM | CC(=O)NC1CCN(CCOc2ccc(Oc3nc4ncc(C)cc4s3)cc2)CC1 [Example 154, N-[1-(2-{4-[(6-Methyl[1,3]thiazolo[4,5-b]pyridin-2-yl)oxy]phenoxy}ethyl)piperidin-4-yl]acetamide] |
| 67 nM | 4 nM | FC(F)(F)C1CCN(Cc2ccc(Oc3nc4ncccc4s3)cc2)CC1 [Example 92, 2-(4-{[4-(Trifluoromethyl)piperidin-1-yl]methyl}phenoxy)[1,3]thiazolo[4,5-b]pyridine] |
